Measured values from US12162858B2, “Quinoline derivatives as inhibitors of AXL/MER RTK and CSF1R” (QURIENT CO., LTD., priority 2018, dated 2024).

Experiments:
Mer = target: T1, Mer (Homo sapiens, UniProt Q12866); assay: LanthaScreen Eu kinase binding assay for Mer; settings: read-out: Mer kinase binding activity (Kd)
T1 construct: purchased Life Technologies
T1 sequence (Q12866 21-999): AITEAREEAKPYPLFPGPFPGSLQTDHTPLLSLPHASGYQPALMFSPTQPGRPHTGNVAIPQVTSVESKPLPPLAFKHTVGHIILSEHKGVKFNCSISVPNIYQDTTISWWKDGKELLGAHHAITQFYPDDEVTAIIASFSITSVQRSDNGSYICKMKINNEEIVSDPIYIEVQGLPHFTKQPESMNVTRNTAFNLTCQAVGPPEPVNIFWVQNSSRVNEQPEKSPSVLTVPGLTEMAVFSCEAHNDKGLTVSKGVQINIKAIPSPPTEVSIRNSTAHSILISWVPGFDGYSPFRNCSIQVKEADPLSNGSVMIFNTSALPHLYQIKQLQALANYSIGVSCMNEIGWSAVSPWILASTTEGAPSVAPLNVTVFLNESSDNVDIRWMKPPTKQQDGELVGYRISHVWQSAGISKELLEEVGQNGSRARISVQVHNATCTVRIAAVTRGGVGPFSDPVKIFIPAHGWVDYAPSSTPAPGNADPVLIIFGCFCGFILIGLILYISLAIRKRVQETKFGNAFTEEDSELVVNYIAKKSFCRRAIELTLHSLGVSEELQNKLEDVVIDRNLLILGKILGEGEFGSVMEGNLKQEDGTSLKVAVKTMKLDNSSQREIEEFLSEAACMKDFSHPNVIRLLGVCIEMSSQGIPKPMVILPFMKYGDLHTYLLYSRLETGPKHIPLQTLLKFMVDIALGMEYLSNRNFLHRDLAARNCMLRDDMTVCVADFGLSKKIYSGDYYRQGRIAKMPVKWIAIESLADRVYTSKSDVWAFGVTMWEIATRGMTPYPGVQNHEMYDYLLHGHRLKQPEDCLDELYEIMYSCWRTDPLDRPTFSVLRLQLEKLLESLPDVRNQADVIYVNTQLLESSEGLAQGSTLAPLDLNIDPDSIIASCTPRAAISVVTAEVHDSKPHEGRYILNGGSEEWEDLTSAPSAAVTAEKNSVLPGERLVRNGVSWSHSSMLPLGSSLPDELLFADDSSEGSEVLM
Experimental: (§1) LanthaScreen® Eu Kinase Binding assays were conducted at Life Technologies using the manufacturer's specifications for each kinase indicated.
(§2) Briefly, the principle behind this assay is based upon the binding and displacement of an Alexa Fluor 647-labeled tracer to the kinase of interest. Binding of the tracer to the kinase is detected using an EU-labeled anti-tag antibody. Simultaneous binding of both the tracer and antibody to the kinase gives rise to a FRET-signal. Binding of an inhibitor to the kinase competes for binding with the tracer, resulting in a loss of FRET-signal.
(§3) A given compound was diluted in DMSO to make a stock compound solution. The stock compound solution was serially diluted over eight steps in DMSO. Each diluted compound solution in DMSO was diluted in kinase buffer. Afterwards four kinds of working solution were prepared. First, Tracer-Working solution consists of Tracer 236 and Kinase Buffer. Second, Axl, Mer, Tyro3 or Met/anti-GST-AB-Working solution contained one of the kinases Axl, and Mer or anti-GST-AB (=anti glutathione-S-transferase antibody) in Kinase Buffer. Third, anti-GST-AB-Working solution was made with anti-GST-AB and Kinase Buffer. Last, in the DMSO-Working solution DMSO was added to Kinase Buffer to a final concentration to 3%. Each of the four kinds of working solutions were separately added to the assay plate and then incubated for 1 h at room temperature. After incubation, the assay plate was measured with respect to the FRET-Signal with the EnVision (Perkin Elmer) using the program LanthaHTRF-Assay. Data evaluation was done in the Quattro Workflow software. Kd (the equilibrium dissociation constant) values were calculated relative to vehicle (DMSO) control wells.

Axl = target: T2, Axl (Homo sapiens, UniProt P30530); assay: LanthaScreen Eu kinase binding assay for Axl; settings: read-out: Axl kinase binding activity (Kd)
T2 sequence (P30530 26-894): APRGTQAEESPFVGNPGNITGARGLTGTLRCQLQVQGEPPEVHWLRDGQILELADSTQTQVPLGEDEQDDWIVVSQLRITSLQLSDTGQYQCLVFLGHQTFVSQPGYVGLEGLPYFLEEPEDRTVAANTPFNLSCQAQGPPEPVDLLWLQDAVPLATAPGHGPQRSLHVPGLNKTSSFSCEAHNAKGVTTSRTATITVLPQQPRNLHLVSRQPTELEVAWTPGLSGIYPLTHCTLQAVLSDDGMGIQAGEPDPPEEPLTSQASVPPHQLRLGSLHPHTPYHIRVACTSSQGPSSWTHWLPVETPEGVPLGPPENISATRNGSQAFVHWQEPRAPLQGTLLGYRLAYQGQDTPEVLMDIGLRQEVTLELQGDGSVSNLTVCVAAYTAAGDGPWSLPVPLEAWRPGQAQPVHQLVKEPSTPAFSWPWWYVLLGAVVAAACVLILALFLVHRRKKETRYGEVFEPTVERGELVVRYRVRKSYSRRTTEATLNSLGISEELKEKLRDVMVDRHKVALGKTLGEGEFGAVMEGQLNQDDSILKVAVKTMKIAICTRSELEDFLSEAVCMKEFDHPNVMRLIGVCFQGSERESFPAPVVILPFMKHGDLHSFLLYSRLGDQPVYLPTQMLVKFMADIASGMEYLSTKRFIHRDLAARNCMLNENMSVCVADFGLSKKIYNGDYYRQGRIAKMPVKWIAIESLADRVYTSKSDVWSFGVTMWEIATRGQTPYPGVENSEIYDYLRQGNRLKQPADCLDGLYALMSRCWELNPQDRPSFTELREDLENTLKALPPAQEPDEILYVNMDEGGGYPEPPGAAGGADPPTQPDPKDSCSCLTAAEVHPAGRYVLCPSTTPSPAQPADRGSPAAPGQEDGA
Experimental: as §1, §2, §3

SMILES | Kd (Mer) | Kd (Axl)
COc1cc2nccc(Oc3ccc(NC(=O)c4nn(C5CCN(C)C5)cc4OCC(F)(F)F)cc3)c2cc1OC (centres unmarked) [Compound 100] | < 100 nM | < 100 nM
CCCn1cc(OCC(F)(F)F)c(C(=O)Nc2ccc(Oc3ccnc4cc(OC)c(OC)cc34)cn2)n1 [Compound 7] | < 100 nM | < 100 nM
COc1cc2nccc(Oc3ccc(NC(=O)c4nn(C5CC5)cc4NCCC(F)(F)F)nn3)c2cc1OC [Compound 146] | < 100 nM | < 100 nM
COc1cc2nccc(Oc3ccc(NC(=O)c4nn(C5CC5)cc4NCC(F)(F)F)nc3)c2cc1OC [Compound 145] | < 100 nM | < 100 nM
CCCn1cc(OCC2CCOCC2)c(C(=O)Nc2ccc(Oc3ccnc4cc(OC)c(OC)cc34)cn2)n1 [Compound 164] | < 100 nM | < 100 nM
COc1cc2nccc(Oc3ccc(NC(=O)c4nn(C5CCNC5)cc4OCC(F)(F)F)cn3)c2cc1OC (centres unmarked) [Compound 132] | ≥ 500 nM | ≥ 500 nM
COc1cc2nccc(Oc3ccc(NC(=O)c4nn(C5CCOC5)cc4OCC(F)(F)F)nn3)c2cc1OC (centres unmarked) [Compound 128] | < 100 nM | < 100 nM
